This passage reports inhibition results from patent US20250017213A1, “COMPOSITION FOR MODULATING MICROBIAL GROWTH” (DSM AUSTRIA GMBH, priority 2021, published 2025).

The assay deals with Lactobacillus reuteri F 275 (DSMZ 20016). As to the kind of experiment: microbe, parasite or virus in culture. The settings on record: Limosilactobacillus reuteri.

For orientation: inhibition means the share of the control response that was lost under treatment. Read a low inhibition as little suppression. Regarding `O=CO` [formic, formic acid], the inhibition at […] reads like this: (DSMZ20016, NCI-H125, 4 h) 23.4%; (DSMZ20016, NCI-H125, 5 h) 38.2%; (DSMZ20016, NCI-H125, 6 h) 39.8%; (DSMZ20016, NCI-H125, 7 h) 39.7%; (DSMZ20016, NCI-H125, 10 h) 39.5%.
